Data: US9404081B2, “Pyruvate kinase activators for use in therapy” (AGIOS PHARMACEUTICALS, INC., priority 2011, dated 2016)

What was measured:
Assay type in all cases: biochemical
PKR R510Q = PKR R510Q (Homo sapiens, UniProt P30613, R510Q); test: PKR R510Q Single Point Percent Activation Assay; details: read-out: Act. % 510Q
Experimental: PKR R510Q Single Point Percent Activation Assay
(§1) A compound described herein was diluted with DMSO and tested at 1 μM concentration. The enzyme was diluted in 1× Buffer: (100 mM KCl, 50 mM Tris 7.5, 5 mM MgCl2, 1 mM DTT, 0.03% BSA). 2 μL of compound solution was first added into wells, and then 180 μL of enzyme solution was added. Assays were assembled except for ADP, and plates were stored for 60 minutes at RT. 20 μL ADP was added to start the assay and assay output was evaluated using OD340 at SpectraMax. The assay was run at room temperature.
Final concentration: PKR R510Q (40 ng/well), Tris pH 7.5 (50 mM), KCl (100 mM), MgCl2 (5 mM), ADP (0.2 mM), PEP (0.11 mM), NADH (180 μM), LDH (0.5 units, Sigma 59023), DTT (1 mM) and BSA (0.03%).

PKR R532W = PKR R532W (Homo sapiens, UniProt P30613, R532W); test: PKR R532W Single Point Percent Activation Assay; details: read-out: Act, % 532W
Sequence of PKR R532W (P30613 whole entry R532W): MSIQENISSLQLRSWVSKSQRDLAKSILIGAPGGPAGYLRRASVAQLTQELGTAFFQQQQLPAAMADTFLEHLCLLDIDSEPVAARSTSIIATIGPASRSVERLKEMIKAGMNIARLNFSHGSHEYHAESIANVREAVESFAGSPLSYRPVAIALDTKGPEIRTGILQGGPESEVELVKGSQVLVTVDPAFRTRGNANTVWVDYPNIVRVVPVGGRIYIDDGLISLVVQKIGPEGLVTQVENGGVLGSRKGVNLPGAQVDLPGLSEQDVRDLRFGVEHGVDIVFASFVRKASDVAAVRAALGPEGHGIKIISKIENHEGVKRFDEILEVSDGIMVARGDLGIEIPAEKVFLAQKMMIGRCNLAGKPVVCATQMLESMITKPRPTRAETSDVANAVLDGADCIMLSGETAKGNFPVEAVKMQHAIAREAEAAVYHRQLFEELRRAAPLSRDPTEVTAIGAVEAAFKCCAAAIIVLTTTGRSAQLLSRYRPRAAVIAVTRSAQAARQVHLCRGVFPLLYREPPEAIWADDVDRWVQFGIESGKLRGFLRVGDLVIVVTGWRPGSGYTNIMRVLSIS
Experimental: PKR R532W Single Point Percent Activation Assay
as §1
Final concentration: PKR R532W (100 ng/well), Tris pH 7.5 (50 mM), KCl (100 mM), MgCl2 (5 mM), ADP (0.36 mM), PEP (0.1 mM), NADH (180 μM), LDH (0.5 units, Sigma 59023), DTT (1 mM) and BSA (0.03%).

PKR T384W = PKR T384W (Homo sapiens, UniProt P30613, T384W); test: PKR T384W Single Point Percent Activation Assay; details: read-out: Act. % 384W
Sequence of PKR T384W (P30613 whole entry T384W): as the sequence (P30613 whole entry R532W) above, with T384W, W532R counted along it
Experimental: PKR T384W Single Point Percent Activation Assay
as §1, with “180 μL enzyme solution” for “180 μL of enzyme solution”
Final concentration: PKR T384W soluble (300 ng/well), Tris pH 7.5 (50 mM), KCl (100 mM), MgCl2 (5 mM), ADP (0.08 mM), PEP (0.23 mM), NADH (180 μM), LDH (0.5 units, Sigma 59023), DTT (1 mM) and BSA (0.03%).

PKR wt = PKR wt (Homo sapiens, UniProt P30613); test: PKR WT Single Point Percent Activation Assay
Sequence of PKR wt (P30613 whole entry): as the sequence (P30613 whole entry R532W) above, with W532R counted along it
Experimental: PKR WT Single Point Percent Activation Assay
as §1
Final concentration: PKR wt (100 ng/well), Tris pH 7.5 (50 mM), KCl (100 mM), MgCl2 (5 mM), ADP (0.48 mM), PEP (0.15 mM), NADH (180 μM), LDH (0.5 units, Sigma 59023), DTT (1 mM) and BSA (0.03%).

Sequence of PKR R510Q (P30613 whole entry R510Q): as the sequence (P30613 whole entry R532W) above, with R510Q, W532R counted along it

Row | Compound | activation at 1 µM (PKR R510Q) [%] | activation at 1 µM (PKR R532W) [%] | activation at 1 µM (PKR T384W) [%] | activation at 1 µM (PKR wt) [%]
1 | C[C@H]1CN(C(=O)c2ccc(NS(=O)(=O)c3cccc4cccnc34)cc2)CCN1Cc1ccccc1 | 101 to 500 | 101 to 500 | 101 to 500 | 101 to 500
2 | C[C@H]1CN(Cc2ccccc2)CCN1C(=O)c1ccc(NS(=O)(=O)c2cccc3cccnc23)cc1 | 101 to 500 | 101 to 500 | 101 to 500 | 101 to 500
3 | C[C@@H]1CN(Cc2ccccc2)CCN1C(=O)c1ccc(NS(=O)(=O)c2cccc3cccnc23)cc1 | 101 to 500 | 101 to 500 | 101 to 500 | 101 to 500
4 | C[C@H]1CN(Cc2ccccc2F)CCN1C(=O)c1ccc(NS(=O)(=O)c2cccc3cccnc23)cc1 | 1 to 100 | 101 to 500 | 101 to 500 | 101 to 500
5 | C[C@H]1CN(CC2CC2)CCN1C(=O)c1ccc(NS(=O)(=O)c2cccc3cccnc23)cc1 | 1 to 100 | 101 to 500 | 1 to 100 | 101 to 500
6 | C[C@H]1CN(Cc2cc(F)c(F)cc2F)CCN1C(=O)c1ccc(NS(=O)(=O)c2cccc3cccnc23)cc1 | 1 to 100 | 1 to 100 | 101 to 500 | 1 to 100
7 | COc1cccc(CN2CCN(C(=O)c3ccc(NS(=O)(=O)c4cccc5cccnc45)cc3)[C@@H](C)C2)c1OC | 1 to 100 | 1 to 100 | 101 to 500 | 101 to 500
8 | C[C@@H]1CN(CC2CCCO2)CCN1C(=O)c1ccc(NS(=O)(=O)c2cccc3cccnc23)cc1 (some centres unmarked) | 101 to 500 | 101 to 500 | 1 to 100 | 101 to 500
9 | C[C@@H]1CN(Cc2cc(F)cc(F)c2F)CCN1C(=O)c1ccc(NS(=O)(=O)c2cccc3cccnc23)cc1 | 1 to 100 | 101 to 500 | 1 to 100 | 1 to 100
10 | C[C@@H]1CN(Cc2cc(F)c(F)c(F)c2)CCN1C(=O)c1ccc(NS(=O)(=O)c2cccc3cccnc23)cc1 | 101 to 500 | 1 to 100 | 1 to 100 | 1 to 100
11 | C[C@@H]1CN(Cc2ccccc2F)CCN1C(=O)c1ccc(NS(=O)(=O)c2cccc3cccnc23)cc1 | 101 to 500 | 101 to 500 | 101 to 500 | 101 to 500
12 | C[C@@H]1CN(CC2CCCCC2)CCN1C(=O)c1ccc(NS(=O)(=O)c2cccc3cccnc23)cc1 | 101 to 500 | 101 to 500 | 1 to 100 | 101 to 500
13 | C[C@H]1CN(Cc2ccc(F)cc2)CCN1C(=O)c1ccc(NS(=O)(=O)c2cccc3cccnc23)cc1 | 101 to 500 | 1 to 100 | 101 to 500 | 101 to 500
14 | C[C@H]1CN(CC2CCCCC2)CCN1C(=O)c1ccc(NS(=O)(=O)c2cccc3cccnc23)cc1 | 1 to 100 | 101 to 500 | 1 to 100 | 1 to 100
15 | C[C@H]1CN(Cc2cc(F)c(F)c(F)c2)CCN1C(=O)c1ccc(NS(=O)(=O)c2cccc3cccnc23)cc1 | 1 to 100 | 1 to 100 | 101 to 500 | 1 to 100
16 | C[C@H]1CN(CC2CCCCO2)CCN1C(=O)c1ccc(NS(=O)(=O)c2cccc3cccnc23)cc1 (some centres unmarked) | 1 to 100 | 1 to 100 | 1 to 100 | 1 to 100
17 | CC(c1ccc(Cl)c(F)c1)N1CCN(C(=O)c2ccc(NS(=O)(=O)c3cccc4cccnc34)cc2)[C@H](C)C1 (some centres unmarked) | 101 to 500 | 1 to 100 | 101 to 500 | 1 to 100
18 | CC(c1cc(F)c(F)c(F)c1)N1CCN(C(=O)c2ccc(NS(=O)(=O)c3cccc4cccnc34)cc2)[C@H](C)C1 (some centres unmarked) | 101 to 500 | 1 to 100 | 101 to 500 | 1 to 100

Row | Compound | activation at 1 µM (PKR R510Q) [%] | activation at 1 µM (PKR R532W) [%] | activation at 1 µM (PKR T384W) [%] | activation at 1 µM (PKR wt) [%]
19 | CC(c1c(F)cccc1F)N1CCN(C(=O)c2ccc(NS(=O)(=O)c3cccc4cccnc34)cc2)[C@H](C)C1 (some centres unmarked) | 101 to 500 | 1 to 100 | 1 to 100 | 1 to 100
20 | CC(c1ccc(F)cc1F)N1CCN(C(=O)c2ccc(NS(=O)(=O)c3cccc4cccnc34)cc2)[C@H](C)C1 (some centres unmarked) | 1 to 100 | 1 to 100 | 1 to 100 | 101 to 500
21 | CC[C@H]1CN(C(C)c2cc(F)cc(F)c2)CCN1C(=O)c1ccc(NS(=O)(=O)c2cccc3cccnc23)cc1 (some centres unmarked) | 1 to 100 | 1 to 100 | 1 to 100 | 1 to 100
22 | CC[C@H]1CN(C(C)c2cc(F)c(F)c(F)c2)CCN1C(=O)c1ccc(NS(=O)(=O)c2cccc3cccnc23)cc1 (some centres unmarked) | 1 to 100 | 1 to 100 | 1 to 100 | 1 to 100
23 | C[C@@H]1CN(CC2CCCCO2)CCN1C(=O)c1ccc(NS(=O)(=O)c2cccc3cccnc23)cc1 (some centres unmarked) | 1 to 100 | 101 to 500 | 101 to 500 | 101 to 500
24 | C[C@H]1CN(Cc2c(F)cc(F)cc2F)CCN1C(=O)c1ccc(NS(=O)(=O)c2cccc3cccnc23)cc1 | 1 to 100 | 101 to 500 | 101 to 500 | 1 to 100
25 | O=C(c1ccc(NS(=O)(=O)c2cccc3cccnc23)cc1)N1CCN(Cc2ccc(F)cc2)c2ccccc21 | 1 to 100 | 1 to 100 | 1 to 100 | 1 to 100
26 | CCOC(=O)N1CCN(C(=O)c2ccc(NS(=O)(=O)c3cccc4cccnc34)cc2)c2ccccc21 | 101 to 500 | 101 to 500 | 1 to 100 | 101 to 500
27 | O=C(c1ccc(NS(=O)(=O)c2cccc3cccnc23)cc1)N1CCN(Cc2ccc(F)cc2)C[C@@H]1c1ccccc1 | 1 to 100 | 1 to 100 | 1 to 100 | 1 to 100
28 | C[C@H]1CN(C(=O)O[C@@H]2CCOC2)CCN1C(=O)c1ccc(NS(=O)(=O)c2cccc3cccnc23)cc1 | 1 to 100 | 101 to 500 | 101 to 500 | 101 to 500
29 | CC(c1c(F)cc(F)cc1F)N1CCN(C(=O)c2ccc(NS(=O)(=O)c3cccc4cccnc34)cc2)[C@H](C)C1 (some centres unmarked) | 1 to 100 | 101 to 500 | 101 to 500 | 101 to 500
30 | CC(c1cc(F)c(F)cc1F)N1CCN(C(=O)c2ccc(NS(=O)(=O)c3cccc4cccnc34)cc2)[C@H](C)C1 (some centres unmarked) | 101 to 500 | 101 to 500 | 1 to 100 | 101 to 500
31 | CC(c1ccc(F)cc1F)N1CCN(C(=O)c2ccc(NS(=O)(=O)c3cccc4cccnc34)cc2)[C@@H](C)C1 (some centres unmarked) | 1 to 100 | 101 to 500 | 101 to 500 | 101 to 500
32 | CC(c1cc(F)cc(F)c1)N1CCN(C(=O)c2ccc(NS(=O)(=O)c3cccc4cccnc34)cc2)[C@@H](C)C1 (some centres unmarked) | 1 to 100 | 1 to 100 | 1 to 100 | 1 to 100
33 | CC(c1ccc(F)cc1)N1CCN(C(=O)c2ccc(NS(=O)(=O)c3cccc4cccnc34)cc2)[C@@H](C)C1 (some centres unmarked) | 101 to 500 | 101 to 500 | 101 to 500 | 101 to 500
34 | CC(c1c(F)cc(F)cc1F)N1CCN(C(=O)c2ccc(NS(=O)(=O)c3cccc4cccnc34)cc2)[C@@H](C)C1 (some centres unmarked) | 101 to 500 | 101 to 500 | 101 to 500 | 101 to 500
35 | CC(c1cc(F)c(F)cc1F)N1CCN(C(=O)c2ccc(NS(=O)(=O)c3cccc4cccnc34)cc2)[C@@H](C)C1 (some centres unmarked) | 1 to 100 | 101 to 500 | 101 to 500 | 101 to 500
